What was measured:
CYP1A2 = molecular target: T1, CYP1A2 (Homo sapiens, UniProt P05177); test: CYP1A2 inhibition (fluorescent substrate CEC); type: in vitro ADME; settings: read-out: Cyp IC50 (μM) 1A2
T1 sequence (P05177 1-516): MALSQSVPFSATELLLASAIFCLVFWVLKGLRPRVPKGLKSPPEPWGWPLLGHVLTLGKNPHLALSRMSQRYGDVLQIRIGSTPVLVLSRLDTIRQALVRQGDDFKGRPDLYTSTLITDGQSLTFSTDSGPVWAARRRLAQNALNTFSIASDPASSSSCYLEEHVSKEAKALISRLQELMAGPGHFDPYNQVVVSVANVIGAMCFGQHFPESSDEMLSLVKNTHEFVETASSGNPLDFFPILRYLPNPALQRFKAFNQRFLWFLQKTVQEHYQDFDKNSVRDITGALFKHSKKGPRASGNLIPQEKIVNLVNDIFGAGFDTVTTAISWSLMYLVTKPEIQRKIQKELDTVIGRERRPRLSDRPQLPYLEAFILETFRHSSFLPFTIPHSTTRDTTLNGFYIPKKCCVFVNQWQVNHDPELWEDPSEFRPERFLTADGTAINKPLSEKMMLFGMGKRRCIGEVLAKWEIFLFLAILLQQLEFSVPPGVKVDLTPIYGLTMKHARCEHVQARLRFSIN
Protocol: (§1) CYP (Cytochrome P450) enzymes are the major drug metabolizing enzymes present in the liver. The inhibition of CYP enzyme activity (IC50) for each of CYP1A2, CYP2C19, CYP2C9, CYP2D6, CYP3A4(BFC) and CYP3A4(BQ) is determined for compounds, where inhibition of metabolism of a known substrate leads to a decrease in the fluorescence of the metabolized product. The fluorescence of the product is monitored as a function of compound concentration. Compounds are dissolved in dimethyl sulfoxide to a concentration of 100 mM. These are diluted […], into 82 μL of acetonitrile. An 11 μL aliquot of this solution is then added to 204 μL of cofactor mix (1.3% NADPH Regeneration system Solution A, 1.04% NADPH Regeneration system Solution B from BD Biosciences, 5% acetonitrile and 0.05% dimethyl sulfoxide). These are then serially diluted 1:1 (160 μL to 160 μL co-factor mix) for a total of 10 points. A 10 μL aliquot of this final mixture is dispensed into 384 well assay plates and incubated for 10 minutes at 37° C. Enzyme and substrate mix (10 μL; 0.5 pmol CYP1A2/5 μM CEC; 1.0 pmol CYP2C9/75 μM MFC; 0.5 pmol CYP2C19/25 μM CEC; 1.5 pmol CYP2D6/1.5 μM AMMC; 1.0 pmol CYP3A4/50 μM BFC; or 1.0 pmol CYP3A4/40 μM BQ) is added to these assay plates. Assay plates are incubated at 37° C. (CYP1A2-15 min; CYP2C9-45 min; CYP2C19, 2D6 and 3A4-30 min) and read in a Tecan Safire 2 plate reader (CYP1A2, 2C19 and 3A4 409 ex/460 em; CYP2C9 and 2D6 409 ex/530 em). The signal versus compound concentration is used to determine the IC50. The enzymes and substrates for this assay are obtained from BD Biosciences.

B-Raf V600E = B-Raf V600E (Homo sapiens, UniProt P15056, V600E); test: B-Raf V600E kinase activity assay (AlphaScreen, biotin-MEK1 substrate); settings: 100 μM ATP, 100 nM biotin-MEK1, 45 minutes at room temperature, read-out: Biochemical activity (IC50 μM) V600E
Procedure, shortened: (§2)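 AlphaScreen detection of phospho-MEK1 uses anti-phospho-MEK1/2 antibody and donor/acceptor beads, incubated 3 h. The kinase step runs 45 min at room temperature with 0.1 ng enzyme, 100 nM biotin-MEK1 and 100 μM ATP in 50 mM HEPES pH 7.0. IC50 is derived from eight compound concentrations.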

CYP2D6 = CYP2D6 (Homo sapiens, UniProt P10635); test: CYP2D6 inhibition (fluorescent substrate AMMC); type: in vitro ADME; settings: read-out: Cyp IC50 (μM) 2D6
Protocol: as §1

CYP2C19 = CYP2C19 (Homo sapiens, UniProt P33261); test: CYP2C19 inhibition (fluorescent substrate CEC); type: in vitro ADME; settings: read-out: Cyp IC50 (μM) 2C19
Protocol: as §1

B-Raf = B-Raf (Homo sapiens, UniProt P15056); test: B-Raf kinase activity assay (AlphaScreen, biotin-MEK1 substrate); settings: 100 μM ATP, 100 nM biotin-MEK1, 45 minutes at room temperature; read-out: Biochemical activity (IC50 μM) B-Raf
Procedure, shortened: as §2

c-Raf-1 = c-Raf-1 (Homo sapiens, UniProt P04049); test: c-Raf-1 kinase activity assay (AlphaScreen, biotin-MEK1 substrate); settings: 100 μM ATP, 100 nM biotin-MEK1, 45 minutes at room temperature; read-out: Biochemical activity (IC50 μM) c-Raf-1
Procedure, shortened: as §2

CYP3A4(BFC) = CYP3A4(BFC) (Homo sapiens, UniProt P08684); test: CYP3A4 inhibition (substrate BFC); type: in vitro ADME; settings: read-out: Cyp IC50 (μM) 3A4(BFC)
Protocol: as §1

B-Raf, sequence (P15056 whole entry): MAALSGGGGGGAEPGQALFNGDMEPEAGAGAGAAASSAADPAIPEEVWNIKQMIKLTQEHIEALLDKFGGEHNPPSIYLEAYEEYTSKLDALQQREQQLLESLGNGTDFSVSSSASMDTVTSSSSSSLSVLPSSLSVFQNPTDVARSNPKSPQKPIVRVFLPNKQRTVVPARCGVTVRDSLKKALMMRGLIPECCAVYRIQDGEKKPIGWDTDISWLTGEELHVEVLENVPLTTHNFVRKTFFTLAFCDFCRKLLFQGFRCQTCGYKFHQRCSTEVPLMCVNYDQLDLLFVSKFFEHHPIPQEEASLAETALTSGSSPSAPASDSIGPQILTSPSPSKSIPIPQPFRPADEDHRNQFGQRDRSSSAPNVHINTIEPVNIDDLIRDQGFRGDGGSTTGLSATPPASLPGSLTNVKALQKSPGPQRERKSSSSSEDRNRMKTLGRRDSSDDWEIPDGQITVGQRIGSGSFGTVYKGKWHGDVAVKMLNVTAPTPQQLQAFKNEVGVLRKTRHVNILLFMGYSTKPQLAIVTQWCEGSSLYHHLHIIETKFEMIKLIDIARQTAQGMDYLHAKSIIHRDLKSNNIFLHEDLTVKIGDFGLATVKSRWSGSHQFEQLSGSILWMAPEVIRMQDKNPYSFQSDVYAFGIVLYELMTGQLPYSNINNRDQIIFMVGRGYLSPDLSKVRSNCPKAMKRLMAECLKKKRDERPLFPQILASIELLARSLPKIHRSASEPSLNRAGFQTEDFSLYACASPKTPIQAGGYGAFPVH
B-Raf V600E, sequence (P15056 whole entry V600E): as the sequence (P15056 whole entry) above, with V600E counted along it
CYP2C19, sequence (P33261 whole entry): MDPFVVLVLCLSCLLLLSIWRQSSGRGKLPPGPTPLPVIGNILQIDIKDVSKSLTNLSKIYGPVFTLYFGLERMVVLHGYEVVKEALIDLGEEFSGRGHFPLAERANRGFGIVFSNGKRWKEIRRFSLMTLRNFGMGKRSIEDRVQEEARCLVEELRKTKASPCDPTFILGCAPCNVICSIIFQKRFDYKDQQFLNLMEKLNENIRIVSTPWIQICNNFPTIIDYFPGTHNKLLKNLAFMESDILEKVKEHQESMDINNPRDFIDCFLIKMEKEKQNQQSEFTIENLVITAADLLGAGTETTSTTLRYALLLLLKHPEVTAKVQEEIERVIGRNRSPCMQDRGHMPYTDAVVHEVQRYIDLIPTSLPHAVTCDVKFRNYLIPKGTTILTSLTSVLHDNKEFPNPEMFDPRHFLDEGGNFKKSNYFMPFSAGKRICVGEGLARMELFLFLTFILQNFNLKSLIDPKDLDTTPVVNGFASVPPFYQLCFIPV
CYP2D6, sequence (P10635 whole entry): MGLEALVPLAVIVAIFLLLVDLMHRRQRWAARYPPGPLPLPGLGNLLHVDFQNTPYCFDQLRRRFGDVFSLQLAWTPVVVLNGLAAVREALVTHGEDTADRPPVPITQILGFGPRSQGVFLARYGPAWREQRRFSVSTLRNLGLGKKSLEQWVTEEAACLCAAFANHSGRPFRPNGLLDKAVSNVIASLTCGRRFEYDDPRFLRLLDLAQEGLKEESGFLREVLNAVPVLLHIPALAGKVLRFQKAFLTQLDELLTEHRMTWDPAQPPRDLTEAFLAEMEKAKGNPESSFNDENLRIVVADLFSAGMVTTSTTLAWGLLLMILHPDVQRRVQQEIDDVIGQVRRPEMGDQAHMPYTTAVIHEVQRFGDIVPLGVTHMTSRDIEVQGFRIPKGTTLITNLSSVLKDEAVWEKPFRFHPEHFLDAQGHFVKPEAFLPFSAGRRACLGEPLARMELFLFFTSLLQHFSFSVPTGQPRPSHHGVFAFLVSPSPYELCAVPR
c-Raf-1, sequence (P04049 whole entry Y340D/Y341D, form open): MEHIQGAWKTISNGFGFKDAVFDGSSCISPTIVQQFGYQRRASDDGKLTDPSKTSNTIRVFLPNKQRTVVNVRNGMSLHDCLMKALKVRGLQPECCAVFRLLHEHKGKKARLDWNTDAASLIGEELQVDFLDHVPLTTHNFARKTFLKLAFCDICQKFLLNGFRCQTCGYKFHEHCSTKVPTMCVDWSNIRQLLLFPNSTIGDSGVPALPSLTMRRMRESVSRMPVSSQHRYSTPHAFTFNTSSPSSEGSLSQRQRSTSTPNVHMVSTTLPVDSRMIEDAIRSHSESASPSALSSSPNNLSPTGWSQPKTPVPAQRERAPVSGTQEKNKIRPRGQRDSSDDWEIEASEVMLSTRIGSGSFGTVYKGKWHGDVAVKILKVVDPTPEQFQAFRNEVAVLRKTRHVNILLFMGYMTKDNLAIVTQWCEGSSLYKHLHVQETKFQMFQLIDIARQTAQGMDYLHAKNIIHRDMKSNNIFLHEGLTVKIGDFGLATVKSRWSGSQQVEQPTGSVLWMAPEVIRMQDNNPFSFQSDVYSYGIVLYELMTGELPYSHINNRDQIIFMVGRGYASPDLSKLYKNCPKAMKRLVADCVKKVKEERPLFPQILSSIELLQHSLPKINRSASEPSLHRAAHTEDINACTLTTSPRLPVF
CYP3A4(BFC), sequence (P08684 whole entry): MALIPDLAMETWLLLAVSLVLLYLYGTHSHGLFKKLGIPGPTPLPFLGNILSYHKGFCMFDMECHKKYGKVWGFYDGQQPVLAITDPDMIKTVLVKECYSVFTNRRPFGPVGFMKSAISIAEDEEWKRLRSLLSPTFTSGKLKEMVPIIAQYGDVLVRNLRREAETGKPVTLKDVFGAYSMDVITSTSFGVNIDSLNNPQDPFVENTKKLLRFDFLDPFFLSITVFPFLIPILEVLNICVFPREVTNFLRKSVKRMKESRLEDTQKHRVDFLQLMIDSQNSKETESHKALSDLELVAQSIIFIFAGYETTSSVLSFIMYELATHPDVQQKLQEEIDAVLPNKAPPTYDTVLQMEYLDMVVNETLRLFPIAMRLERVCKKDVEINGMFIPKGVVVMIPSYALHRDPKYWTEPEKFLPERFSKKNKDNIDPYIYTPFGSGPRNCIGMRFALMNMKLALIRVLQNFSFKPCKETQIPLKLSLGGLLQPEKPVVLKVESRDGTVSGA

Row | SMILES | IC50 (CYP1A2) [µM] | IC50 (B-Raf V600E) [µM] | IC50 (CYP2D6) [µM] | IC50 (CYP2C19) [µM] | IC50 (B-Raf) [µM] | IC50 (c-Raf-1) [µM] | IC50 (CYP3A4(BFC)) [µM]
1 | CCCS(=O)(=O)Nc1ccc(F)c(C(=O)c2c[nH]c3ncc(-c4ccc5[nH]ncc5c4)cc23)c1F [P-0001, propane-1-sulfonic acid {2,4-difluoro-3-[5-(1H-indazol-5-yl)-1H-pyrrolo[2,3-b]pyridine-3-carbonyl]-phenyl}-amide] | > 10 | < 0.1 | > 10 | < 5 | < 0.1 | < 0.1 | > 10
2 | O=C(c1c(F)ccc(NS(=O)(=O)c2cc(F)ccc2F)c1F)c1c[nH]c2ncc(-c3ccc4[nH]ncc4c3)cc12 [P-0002, N-{2,4-Difluoro-3-[5-(1H-indazol-5-yl)-1H-pyrrolo[2,3-b]pyridine-3-carbonyl]-phenyl}-2,5-difluoro-benzenesulfonamide] | > 10 | < 0.1 | > 10 | 5 to 10 | < 0.1 | < 0.1 | 
3 | CNC(=O)n1ncc2cc(-c3cnc4[nH]cc(C(=O)c5c(F)ccc(NS(=O)(=O)c6cc(F)ccc6F)c5F)c4c3)ccc21 [P-0003, 5-{3-[3-(2,5-Difluoro-benzenesulfonylamino)-2,6-difluoro-benzoyl]-1H-pyrrolo[2,3-b]pyridin-5-yl}-indazole-1-carboxylic acid methylamide] | > 10 | < 0.1 | > 10 | < 5 | < 0.1 | < 0.1 | > 10
4 | CC(=O)n1cc(C(=O)c2c(F)ccc(NS(=O)(=O)c3cc(F)ccc3F)c2F)c2cc(-c3ccc4c(cnn4C(C)=O)c3)cnc21 [P-0004, N-{3-[1-Acetyl-5-(1-acetyl-1H-indazol-5-yl)-1H-pyrrolo[2,3-b]pyridine-3-carbonyl]-2,4-difluoro-phenyl}-2,5-difluoro-benzenesulfonamide] | > 10 | < 0.1 | > 10 | < 5 | < 0.1 | < 0.1 | > 10
5 | CC(=O)n1ncc2cc(-c3cnc4[nH]cc(C(=O)c5c(F)ccc(NS(=O)(=O)c6cc(F)ccc6F)c5F)c4c3)ccc21 [P-0005, N-{3-[5-(1-Acetyl-1H-indazol-5-yl)-1H-pyrrolo[2,3-b]pyridine-3-carbonyl]-2,4-difluoro-phenyl}-2,5-difluoro-benzenesulfonamide] | > 10 | < 0.1 | > 10 | < 5 | < 0.1 | < 0.1 | > 10
6 | CC(=O)N(c1ccc(F)c(C(=O)c2cn(C(C)=O)c3ncc(-c4ccc5c(cnn5C(C)=O)c4)cc23)c1F)S(=O)(=O)c1cc(F)ccc1F [P-0006, N-Acetyl-N-{3-[1-acetyl-5-(1-acetyl-1H-indazol-5-yl)-1H-pyrrolo[2,3-b]pyridine-3-carbonyl]-2,4-difluoro-phenyl}-2,5-difluoro-benzenesulfonamide] | 5 to 10 | < 0.1 | > 10 | 5 to 10 | < 0.1 | < 0.1 | > 10
7 | CCCS(=O)(=O)Nc1ccc(F)c(C(=O)c2c[nH]c3ncc(-c4ccc5c(cnn5C(C)=O)c4)cc23)c1F [P-0007, propane-1-sulfonic acid {3-[5-(1-acetyl-1H-indazol-5-yl)-1H-pyrrolo[2,3-b]pyridine-3-carbonyl]-2,4-difluoro-phenyl}-amide] | < 5 | < 0.1 | > 10 | < 5 | < 0.1 | ~0.1 | > 10
8 | CCCS(=O)(=O)Nc1ccc(F)c(C(=O)c2c[nH]c3ncc(-c4ccc5nn(C)cc5c4)cc23)c1F [P-0010, Propane-1-sulfonic acid {2,4-difluoro-3-[5-(2-methyl-2H-indazol-5-yl)-1H-pyrrolo[2,3-b]pyridine-3-carbonyl]-phenyl}-amide] | > 10 | < 0.1 | > 10 | > 10 | < 0.1 | < 0.1 | > 10
9 | CCCS(=O)(=O)Nc1ccc(F)c(C(=O)c2c[nH]c3ncc(-c4ccc5cn(C)nc5c4)cc23)c1F [P-0011, Propane-1-sulfonic acid {2,4-difluoro-3-[5-(2-methyl-2H-indazol-6-yl)-1H-pyrrolo[2,3-b]pyridine-3-carbonyl]-phenyl}-amide] | < 5 | < 0.1 | > 10 | > 10 | < 0.1 | < 0.1 | > 10

More lines, now with the values ahead:

Row | IC50 (CYP1A2) [µM] | IC50 (B-Raf V600E) [µM] | IC50 (CYP2D6) [µM] | IC50 (CYP2C19) [µM] | IC50 (B-Raf) [µM] | IC50 (c-Raf-1) [µM] | IC50 (CYP3A4(BFC)) [µM] | SMILES
10 | > 10 | < 0.1 | > 10 | < 5 | < 0.1 | < 0.1 | 5 to 10 | CCCS(=O)(=O)Nc1ccc(F)c(C(=O)c2c[nH]c3ncc(-c4ccc5[nH]ccc5c4)cc23)c1F [P-0012, Propane-1-sulfonic acid {2,4-difluoro-3-[5-(1H-indol-5-yl)-1H-pyrrolo[2,3-b]pyridine-3-carbonyl]-phenyl}-amide]
11 | > 10 | < 0.1 | > 10 | > 10 | < 0.1 | < 0.1 | > 10 | CCCS(=O)(=O)Nc1ccc(F)c(C(=O)c2c[nH]c3ncc(-c4cccc5nn(C)cc45)cc23)c1F [P-0015, Propane-1-sulfonic acid {2,4-difluoro-3-[5-(2-methyl-2H-indazol-4-yl)-1H-pyrrolo[2,3-b]pyridine-3-carbonyl]-phenyl}-amide]
12 | > 10 | < 0.1 | > 10 | > 10 | < 0.1 | < 0.1 | > 10 | CCCS(=O)(=O)Nc1ccc(F)c(C(=O)c2c[nH]c3ncc(-c4ccc5c(cnn5S(C)(=O)=O)c4)cc23)c1F [P-0016, propane-1-sulfonic acid {2,4-difluoro-3-[5-(1-methanesulfonyl-1H-indazol-5-yl)-1H-pyrrolo[2,3-b]pyridine-3-carbonyl]-phenyl}-amide]
13 | > 10 | < 0.1 | > 10 | 5 to 10 | < 0.1 | < 0.1 | > 10 | CCCS(=O)(=O)Nc1ccc(F)c(C(=O)c2c[nH]c3ncc(-c4ccc5ncsc5c4)cc23)c1F [P-0020, Propane-1-sulfonic acid [3-(5-benzothiazol-6-yl-1H-pyrrolo[2,3-b]pyridine-3-carbonyl)-2,4-difluoro-phenyl]-amide]
14 | > 10 | < 0.1 | > 10 | < 5 | < 0.1 | < 0.1 | > 10 | CCCS(=O)(=O)Nc1ccc(F)c(C(=O)c2c[nH]c3ncc(-c4ccc5[nH]cc(C)c5c4)cc23)c1F [P-0023, Propane-1-sulfonic acid {2,4-difluoro-3-[5-(3-methyl-1H-indol-5-yl)-1H-pyrrolo[2,3-b]pyridine-3-carbonyl]-phenyl}-amide]
